# According to PMC6102691, “Identification of a novel ligand for the ATAD2 bromodomain with selectivity over BRD4 through a fragment growing approach” (Organic & Biomolecular Chemistry, 2018):
# Experiments:
# ATAD2 bromodomain = target: T1, ATAD2 bromodomain (Homo sapiens, UniProt Q6PL18); experiment: Surface plasmon resonance (SPR) direct binding to ATAD2; settings: for Kd: SPR format assay, Kd above the top concentration projected by extrapolation (extrapolated Rmax from control compound)
# T1 construct: 981-1108; GST (N); made in house; host or cells: Escherichia coli BL21 (DE3) pLysS, plasmid pGEX-6P-1
# T1 sequence (Q6PL18 981-1108): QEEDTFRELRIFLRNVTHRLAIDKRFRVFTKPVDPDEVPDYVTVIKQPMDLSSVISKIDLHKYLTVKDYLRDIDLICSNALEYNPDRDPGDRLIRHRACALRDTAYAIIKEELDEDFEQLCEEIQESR
# Method: (§1) Surface plasmon resonance (SPR) was used to assess the direct binding of the fragments and provide Kd values for binding to both ATAD2 and BRD4. SPR can yield artefactual data where the concentration of a small-molecular analyte exceeds ∼250 μM, and accordingly, this was the highest concentration used in the assays.
# (§2) 12.5 μM using an Echo 550 (Labcyte). Each well was backfilled to a final volume of 200 nl (for the […]), resulting in final DMSO concentrations of 2 %. 5 μl of GST-ATAD2 was added to each well and incubated for 30mins resulting in a final concentration of 5 nM.
# (§3) 5μl of biotinylated-histone H4 peptide (SGRG-K(Ac)-GG-K(Ac)-GLG-K(Ac)-GGA-K(Ac)- RHRKVGG-K(Biotin)) was then added to each well at a final concentration of 500nM. Both GST-ATAD2 and peptide were diluted in buffer B (50 mM Tris pH 7.5, […], 1 mM DTT, 100 μg/ml bovine serum albumin (BSA)). The plate was then incubated at room temperature for 30mins and then 5 μl LanthaScreen® Tb-anti-GST Antibody (Life Technologies) at final concentration of 5 nM was added to each well and incubated for an additional 30mins. 5 μl of streptavidin-XLL65 (Cisbio Assay) at a final concentration of […] was added to each assay well. Both dyes were diluted in buffer C (50 mM Tris pH 7.5, […], 100 μg/ml BSA). The plate was incubated at room temperature for a further 30mins and then read using a PheraStar FS (BMG Labtech). The data were analysed using Graphpad […]
# (§4) 1.4 Surface Plasmon Resonance (SPR).
# (§5) SPR-based ligand binding assays were performed using Biacore S200 (GE Healthcare) at 25 °C using single cycle affinity.
# (§6) ATAD2N1064A was achieved using standard amine coupling on a CM5 chip surface. The surface was prepared through activation with EDC/NHS, followed by injection of 10 µg/ml of respective proteins until target level 8000 RU was reached. The surface was then quenched using 1 M Ethanolamine and washed with running buffer 10 mM HEPES, 150mM NaCl, 0.01% TWEEN20, 0.5 mM TCEP and 1% DMSO with a flow rate of […]. Compounds were injected in a dose-response manner (8 concentration points ranging from 0-200 µM) in series across the control, ATAD2, BRD4, and ATAD2-N1064A flow cells using solvent correction to account for bulk refractive index changes. The reference control channel was subtracted […]
# (§7) from immobilised channels and dose-response data was fitted using a steady state constant Rmax 1:1 binding model, using an extrapolated Rmax determined from a binding control compound in those cases where the extrapolated Kd value was greater than the top concentration used in the experiment (200 µM). K d values are reported to the nearest 100th of micromolar. 1 […]
# (§8) Crystallisation was performed at 20 °C using the hanging drop vapor diffusion method.
# (§9) Crystals of ATAD2 were grown by mixing 2µl ATAD2 at 7mg/ml and 2µl precipitant containing 0.1 M BIS-TRIS pH 6.5 and 2.0 M ammonium sulfate. Crystals were harvested in a diffusion solution containing 10 mM compound, 5% DMSO, 25 mM HEPES pH 7.5, 75 mM NaCl, 50 mM BIS-TRIS pH 6.5 and 1.0 M Ammonium Sulfate for 48hrs. Prior to data collection the crystals were cryo protected with the addition of 25% (v/v) ethylene glycol to the diffusion solution. X-ray diffraction data were recorded at Diamond Light Source (Harwell, Oxfordshire, UK). Data processing was carried out using XDS, POINTLESS/AIMLESS2 and other programs of the CCP4i suite3 run through the CCP4i2 gui. Structures were solved by molecular replacement using PHASER4 and pdb 3DAI as a starting model. REFMAC5 was employed for refinement, and model building was performed using COOT6. PDBs were deposited within the protein database www.pdb.org using accession codes: 11 XXXX, 15a […]
# [1] = target: T2, GST-ATAD2 bromodomain / biotinylated acetylated histone H4 peptide (Homo sapiens, UniProt Q6PL18); experiment: ATAD2-histone displacement HTRF assay; format: binding; settings: for ATAD2 inhibition in HTRF, in words: highest concentration assayed 1000 μM; for IC50: HTRF format assay, highest concentration 1000 μM; for ATAD2 LE: Ligand efficiency (LE) = 1.4(–log IC50)/N, N = number of non-hydrogen atoms, from HTRF IC50
# T2 construct: 981-1108; made in house; host or cells: Escherichia coli BL21 (DE3) pLysS, plasmid pGEX-6P-1
# T2 sequence (Q6PL18 981-1108): T1 sequence (Q6PL18 981-1108)
# Method: as §1
# 1.1 Protein Purification.
# The ATAD2 bromodomain 981-1108 was expressed with an N-terminal GST fusion from the pGEX-6P-1 plasmid. The plasmids were transformed into BL21 (DE3) pLysS Escherichia coli (Novagen) and then the cells grown in luria bertani (LB) media at 37 °C until an OD600 of 0.6 was reached. The temperature was reduced to 20 °C and expression induced using 0.2 mM Isopropyl β-D-1-thiogalactopyranoside (IPTG). The cells were harvested after overnight incubation and resuspended in buffer A (20 mM HEPES pH 7.4, 100 mM NaCl, 5 mM Dithiothreitol (DTT)). The cells were lysed by sonication and the lysate cleared by centrifugation (50,000 x g, 4 °C, 1 hr). The protein was passed over 5ml of glutathione Sepharose 4B resin (GE Healthcare) at 4 °C. The resin was then washed with buffer A and the protein eluted with buffer A supplemented with 10 mM glutathione. The protein was then applied to a Superdex 200 26/60 gel filtration column (GE Healthcare) equilibrated in buffer […]
# 1.2 Isothermal Titration Calorimetry.
# ATAD2 was exchanged into ITC buffer (50 mM HEPES pH7.4, 200 mM NaCl, 1 mM DTT).
# ITC measurements were carried out at 25°C on a Microcal ITC 200 (Malvern Instruments Ltd, Malvern, UK). Compound 11 at 40mM, 2% DMSO was titrated into ATAD2 prepared in the cell at 150 μM, 2% DMSO. Titrations began with an initial 0.5 μL injection followed by 19x 2 μL injections of compound, with 120s spacing between each injection, and stirred at 1000 rpm throughout the experiment. Data were then analysed using Origin 7.0 (OriginLab Corp., Burlington, NC, USA) and fit with the one-set-of-sites model.
# 1.3 ATAD2-Histone displacement HTRF assay.
# Compounds (dissolved to 100 mM in DMSO) were dispensed into black 384 well assay plates […]
# as §2, §3, §4, §5
# ATAD2N1064A was achieved using standard amine coupling on a CM5 chip surface. The surface was prepared through activation with EDC/NHS, followed by injection of 10 µg/ml of respective proteins until target level 8000 RU was reached. The surface was then quenched using 1 M Ethanolamine and washed with running buffer 10 mM HEPES, 150mM NaCl, 0.01% TWEEN20, 0.5 mM TCEP and 1% DMSO with a flow rate of […]. Compounds were injected in a dose-response manner (8 concentration points ranging from 0-200 µM) in series across the control, ATAD2, BRD4, and ATAD2-N1064A flow cells using solvent correction to account for bulk refractive index changes. The reference control channel was subtracted
# BRD4 = BRD4 (Homo sapiens, UniProt O60885); experiment: Surface plasmon resonance (SPR) direct binding to BRD4; settings: for Kd: SPR format assay, Kd above the top concentration projected by extrapolation (extrapolated Rmax from control compound); for selectivity between ATAD2 and BRD4, in words: BRD4 versus ATAD2
# Method: as §1, with “assays. Where the Kd exceeded this limit, projected Kds were determined by extrapolation, using the observed response units for compound binding (RU) relative to the molecular weight of a known control compound.[23]” for “assays.”
# as §2, §3, §4, §5, §6, §7, §8, §9
SMILES,"ATAD2 binding by SPR, in words (ATAD2 bromodomain; SPR)","ATAD2 inhibition in HTRF, in words [1]",Kd (BRD4),Kd (ATAD2 bromodomain),"binding constant towards ATAD2 relative to BRD4 (fold weaker) (ATAD2 bromodomain; SPR, ATAD2 Kd versus BRD4 Kd)",IC50 [1],ATAD2 LE [1],"BRD4 binding by SPR, in words (BRD4; SPR)","selectivity between ATAD2 and BRD4, in words (BRD4; SPR)"
Cn1cc2c(cc1=O)C(C)(C)C(=O)N2 [Compound 7],bound too weakly to ATAD2 to allow Kd values to be calculated,some inhibition was observed at the highest concentration assayed,> 2000 µM,–,–,–,–,–,–
CCN1C(=O)C(C)(C)c2cc(=O)n(C)cc21 [Compound 14a],–,some inhibition was observed at the highest concentration assayed,12.7 µM,> 200 µM,100 fold,> 1000 µM,–,–,–
Cn1cc2c(cc1=O)C(C)(C)C(=O)N2Cc1ccccc1 [Compound 14b],–,sub-millimolar HTRF IC50 values,> 200 µM,> 2000 µM,–,810 ± 57 µM,0.21,–,–
Cn1cc2c(cc1=O)C(C)(C)C(=O)N2CCc1ccccc1 [Compound 14c],–,sub-millimolar HTRF IC50 values,> 200 µM,> 200 µM,–,868 ± 33 µM,0.19,–,–
Cn1cc2c(cc1=O)C(C)(C)C(=O)N2CCN1CCCC1 [Compound 14d],–,–,> 200 µM,> 2000 µM,–,> 1000 µM,–,–,–
Cn1cc2c(cc1=O)C(C)(C)C(=O)N2CCN1CCOCC1 [Compound 14e],–,–,> 2000 µM,> 2000 µM,–,> 1000 µM,–,–,–
Cn1cc2c(cc1=O)C(C)(C)C(=O)N2CCO [Compound 14g],–,–,> 2000 µM,> 2000 µM,–,> 1000 µM,–,–,–
CC1(C)C(=O)Nc2cn(Cc3ccccc3)c(=O)cc21 [Compound 15c],–,–,> 200 µM,> 200 µM,–,> 1000 µM,–,–,–
CN1C(=O)C(C)(C)c2cc(=O)n(C)cc21 [Compound 17a],bound too weakly to ATAD2 to allow Kd values to be calculated,some inhibition was observed at the highest concentration assayed,> 200 µM,> 2000 µM,–,> 1000 µM,–,detectable binding to BRD4,–
CCCn1cc2c(cc1=O)C(C)(C)C(=O)N2C [Compound 17b],–,–,> 200 µM,> 2000 µM,–,> 1000 µM,–,–,–
CN1C(=O)C(C)(C)c2cc(=O)n(Cc3ccccc3)cc21 [Compound 17c],–,sub-millimolar ATAD2 IC50 values,101 µM,> 200 µM,–,681 ± 120 µM,0.21,–,bound more tightly to BRD4 than to ATAD2
CN1C(=O)C(C)(C)c2cc(=O)n(CCc3ccccc3)cc21 [Compound 17d],–,sub-millimolar ATAD2 IC50 values,161 µM,> 200 µM,–,741 ± 74 µM,0.20,–,bound more tightly to BRD4 than to ATAD2
COC(=O)c1ccc(Cn2cc3c(cc2=O)C(C)(C)C(=O)N3C)cc1 [Compound 17e],–,–,141 µM,> 200 µM,–,651 ± 1 µM,0.18,–,–
CN1C(=O)C(C)(C)c2cc(=O)n(Cc3ccc(C(=O)O)cc3)cc21 [Compound 17f],–,–,> 200 µM,> 200 µM,–,533 ± 40 µM,0.19,–,–
CN1C(=O)C(C)(C)c2cc(=O)n(Cc3ccc(C#N)cc3)cc21 [Compound 17g],–,–,142 µM,> 200 µM,–,562 ± 67 µM,0.20,–,–
CN1C(=O)C(C)(C)c2cc(=O)n(Cc3ccc(C(N)=O)cc3)cc21 [Compound 17h],–,–,> 200 µM,> 200 µM,–,680 ± 66 µM,0.18,–,–
CN1C(=O)C(C)(C)c2cc(=O)n(Cc3ccc(S(C)(=O)=O)cc3)cc21 [Compound 17i],–,–,200 µM,> 200 µM,–,359 ± 37 µM,0.19,–,–
CN1C(=O)C(C)(C)c2cc(=O)n(Cc3ccc(Cl)cc3)cc21 [Compound 17j],–,–,40 µM,200 µM,–,190 ± 63 µM,0.24,–,–
CN1C(=O)C(C)(C)c2cc(=O)n(Cc3ccc(Br)cc3)cc21 [Compound 17k],–,–,48 µM,138 µM,–,236 ± 36 µM,0.23,–,–
CN1C(=O)C(C)(C)c2cc(=O)n(Cc3ccc(C(F)(F)F)cc3)cc21 [Compound 17m],–,–,124 µM,> 200 µM,–,179 ± 43 µM,0.21,–,–
CN1C(=O)C(C)(C)c2cc(=O)n(Cc3ccc(Cl)c(Cl)c3)cc21 [Compound 17n],–,–,65 µM,159 µM,–,299 ± 28 µM,0.21,–,–
CN1C(=O)C(C)(C)c2cc(=O)n(Cc3ccccc3C#N)cc21 [Compound 17o],–,–,> 200 µM,> 2000 µM,–,> 1000 µM,–,–,–
